Like-named read-outs stand apart in the source and are kept apart here.

The test system of data set [1] is lesion of tubulointerstitial tissue / glomerulus. The experiment in a line: Suppression of renal lesion in vivo by active metabolites (model not stated).
Data set [2] has as its system induction of effector macrophage by contact of human PBMC with lipopolysaccharide. As to the kind of experiment: SPFC production by LPS stimulation (Test Example 1). It counts as cell-based. The method, then: A suppressive effect of the test compound to effector macrophage induction was investigated in vitro by an induction and production system of spontaneous plaque-forming cell (SPEC) mentioned in M. Ishibashi, S. Jiang, Y. Kokado, S. Takahara, T. Sonoda: Immunopharmacologic effects of immunosuppressive agents explored by a new effector generation assay. Transplant Proc., 21: 1854-1858, 1989.
Heparin-added peripheral blood (40 ml) was collected from a healthy person and the same amount of EDTA-added physiological saline was added. PBMC were obtained by a specific gravity centrifugal method using Ficoll-Hypaque (manufactured by Pharmacia Fine Chemicals). Self-plasma was added thereto and allowed to stand at 37° C. for 10 minutes and platelets were removed by a low-speed centrifugal separation. RPMI 1640 liquid containing 15 μg/ml of gentamicin and 2 mM L-glutamine was used for washing the PBMC. Concentration of the PBMC was adjusted to 2×10^6 cells/ml using the same liquid.
Each 200 μl of a solution containing 2×10^6 PBMC/ml prepared in the step 1 were added to each well of a micro test plate, lipopolysaccharide (hereinafter, abbreviated as LPS) was diluted with the RPMI 1640 liquid to make the final concentration 80 μg/ml and the said LPS solution was added to each well of the 200 μl-micro test plate. Further, each 50 μl of human serum of type AB were added so as to make the concentration 10% by weight. Two such micro test plates were prepared.
After that, to the above two micro test plates was added a solution where the test compound was diluted with 1% by weight of DMSO so as to make the concentration of the test compound 1 μM. Similarly were prepared each two micro test plates where the final concentrations of the test compound were 0.1 μM, 0.01 μM and 0.001 μM.
The culture liquid prepared as such was incubated for 6 days at 37° C. in 5% CO2.
The effector macrophage induced after the incubation was all recovered using a rubber-policeman (spatula made of rubber). A Hanks solution containing 5 μg/ml of gentamicin was used for washing and, using the said solution, there was prepared a solution where the concentration of the induced effector macrophage was 2×10^6 per ml.
With regard to autologous erythrocytes, those which were preserved at 4° C. in a phosphate physiological saline (hereinafter, abbreviated as PBS) to which 0.1% by weight of AB serum and autologous erythrocytes obtained from PBMC separation were used were used. The preserved autologous erythrocytes were washed for three times with a Hanks solution to which no serum was added and made into a solution of 4% by weight concentration using the said Hanks solution. Poly-L-lysine was added to a Terasaki plate and washed with PBS every 20 minutes at 37° C., the above-mentioned autologous erythrocyte solution was added thereto immediately, the mixture was allowed to stand at 37° C. for 30 minutes and the erythrocytes which were not adhered to the plate were removed to prepare a Terasaki plate to which self-erythrocytes in a monolayer were adhered.
A Hanks solution (4 μl) was added to the said Terasaki plate, 4 μl of a solution containing the induced effector macrophage obtained in the step 3 were added thereto and the mixture was allowed to stand at 37° C. for 2 hours. After completion of the reaction, it was fixed by formalin. Numbers of the produced SPFC which were adhered or phagocytized were measured.
A mean SPFC production number was calculated from the measured values of SPFC production when the concentration of the test compound was the same. SPFC production number per 1×10^6 of the induced effector macrophage was calculated and, from the recovered induced effector macrophage numbers, total SPFC production amount (S2) was calculated.
As a control, no test compound was added and the same operation as above was carried out to calculate the total SPFC production amount (S1). […]

The test system of data set [3] is obstruction-released kidney of male SD rats. The experiment in a line: Obstruction release model after complete obstruction of unilateral ureter for 14 days (UUO/Release, Test Example 3). Conditions: for selectivity of the suppressive effect on renal lesions / Rate of Cases where Glomerular Lesion was Suppressed / Rate of Cases where tubulointerstitial Lesion was Suppressed / Serum Creatinine level (mg/dl) on the 7th Day from Release of Obstruction / Weight of Kidney (g) on the 7th Day from Release of Obstruction: 30 mg/kg subcutaneously every day; for Rate of Cases where Glomerular Lesion was Suppressed / Rate of Cases where tubulointerstitial Lesion was Suppressed / Serum Creatinine level (mg/dl) on the 7th Day from Release of Obstruction / Weight of Kidney (g) on the 7th Day from Release of Obstruction: Table 2. The class given is in vivo, rat. Set-up: key to Suppressive Effect to Glomerular Lesion / Suppressive Effect to Lesion of Tubulointerstitial Tissue: ∘: available; Δ: somewhat available; x: not available. The method, then:
Obstruction Release Model after Complete Obstruction of Unilateral Ureter for 14 Days
Experimental models were prepared by a method devised and established by Ishibashi (Michio Ishibashi, et al.: The Japanese Journal of Nephrology, 42: 248, 2000) using male SD rats of 8-9 weeks age and about 280 g. Thus, the rat was laparotomized under anesthetization with ether and ureter was ligated with 7-0 Nylon at the height of the margin of lower pole of left kidney to close the abdomen. On the 14th day after obstruction, the obstruction was released and urinary passage was reconstructed using a cuff. Thus, after 14 days, the part of ligated obstructed ureter was resected, a polyethylene tube of 25 gages (manufactured by Nippon Sherwood) was used as a cuff and inserted into and retained at the lumen from the cut end of the lower normal ureter, then the cuff was also retained in the expanded upper ureter and each of them was ligated and fixed by 7-0 Nylon to reconstruct the urinary passage. At the same time, the right kidney at the opposite side was excised. After the release of the obstruction, body weight was measured, blood was collected on the 2nd day, 5th day and 7th day from the release to measure serum creatinine, then the rat was sacrificed under anesthetization and the left obstruction-released kidney was excised. With regard to the excised kidney, there were carried out measurement of weight of the kidney and pathological test for the kidney.
An in vivo biological test was carried out for the γ-lactone derivatives according to the present invention using the above models. With regard to the test compound, bulk powder of the test compound was dissolved in an aseptic physiological saline together with gum arabic and the final concentration of gum arabic was 5%(vol/vol). The concentration of the test compound 30 mg/ml was suspended in 5% gum arabic-saline solution. The preparation was subcutaneously injected at the dose of 30 mg/kg every day throughout the experiment. With regard to the test compound, there were used (9-1), (4-2) and (7-3) as the compounds of group I suppressing the SPFC production by allo-MLC stimulation, i.e., the compounds which selectively suppress the induction of effector macrophage in the presence of allo-MLC while there was used (3-2) as the compound of group II suppressing the SPFC production by LPS stimulation, i.e., the compounds which selectively suppress the induction of effector macrophage in the presence of LPS.
In the Table, “functional classification” of the compound means the above group I, group II and group III. “Compound” means the compound bearing each of the above-mentioned compound numbers. The fact whether glomerular lesion was suppressed was judged by the ameriolation of the lesions such as thickness of wall of Bowman's capsule, hyperplasia of mesangial cells and glomerular sclerosis. The fact whether lesion of tubulointerstitial tissue was suppressed was judged by the ameriolation of the lesions such as thickness of basement membrane of tubules, cellular infiltration and fibrosis of interstitial tissue. In the table, “control” is the result when the same test as above was carried out using 5% gum arabic only which is a solvent.
In order to further confirm whether the preventive and therapeutic effect of the γ-lactone derivatives of the present invention to the target cell damage is selective, (7-3) of the group I and (6-1) of the group II were used as test compounds and they were subcutaneously injected at the dose of 30 mg/kg every day and compared with the control group. With regard to the control group, only 5% gum arabic which is a solvent was used and the same test as above was carried out.

Data set [4] has as its system induction of effector macrophage by contact of human PBMC with mitomycin-treated human PBMC (allo-MLC). As to the kind of experiment: SPFC production by allo-MLC stimulation (Test Example 2). The class given is cell-based. The following applies: for functional group (selective suppression of SPFC production by allo-MLC or LPS stimulation): summary of Table 1.
The nature of data set [5]: Acute and chronic toxicity tests (Test Example 5). The class given is in vivo. Conditions: subcutaneously 30 mg/kg/day for ten days. The method, then: Acute and Chronic Toxicity Tests
Toxicity test of benzyl 2-chloro-5-oxotetrahydrofuran-2-carboxylate represented by the formula (6-1) manufactured in Example 8 and ethyl 2-ketoglutarate represented by the formula (9-1) was carried out.

For data set [6], the system named is kidney of chronic puromycin nephrosis rat. As to the kind of experiment: Puromycin chronic nephrosis model in rat (CPN, Test Example 4). Set-up: key to Suppressive Effect to Glomerular Lesion / Suppressive Effect to Lesion of Tubulointerstitial Tissue: ∘: available; Δ: somewhat available; x: not available. The class given is in vivo. The method, then: Evaluation Using Puromycin Chronic Nephrosis Model in Rat
Male SD rat of 8 weeks age of about 250 g was used and […] of puromycin were intravenously administered once according to a method of Diamond, et al. (J. R. Diamond, I. Pesek, S. Ruggeri, M. J. Karnovsky: Essential fatty acid deficiency during acute puromycin nephrosis ameliorates late renal injury. Am. J. Physiol, 257: F798˜F807, 1989). There was induced a chronic puromycin nephrosis rat where albuminuria increased from about tenth to twelfth week. After eighth week from administration of puromycin, each of compound (9-1) and compound (6-1) was subcutaneously injected at the dose of 30 mg/kg/day everyday until the 22nd week.
As a functional evaluation of kidney, albumin in urine was measured every week using a kit for the measurement of albumin. On the 22nd week, the rat was killed and anatomized to observe functional and morphological changes of kidney.

The mark [7] stands for this setting: Experimental Model of Rat: UUO/Release and CPN.
The mark [8] stands for this setting: 144 h, human PBMC with mitomycin-treated human PBMC, incubated 6 days, Table 1, read-out: SPFC Production Inhibiting Concentration by all-MLC Stimulation (μM: IC50).
Setting [9] is: Homo sapiens, Table 5, read-out: Inhibiting Concentration for SPEC Production by allo-MLC Stimulation (μM: IC50).
Where [10] appears, read: 144 h, human PBMC with LPS 80 μg/ml, incubated 6 days, Table 1, read-out: SPFC Production Inhibiting Concentration by LPS Stimulation (μM: IC50).
[11] abbreviates: Homo sapiens, Table 5, read-out: Inhibiting Concentration for SPEC Production by LPS Stimulation (μM: IC50).
Where [12] appears, read: 30 mg/kg/day subcutaneously from 8th to 22nd week after puromycin.
Setting [13] is: Experimental Model of Rat: UUO/Release.

As for benzyl 2-ketoglutarate [(9-2)], the “suppression of lesion of glomerulus in vivo” value in data set [1] is on record as “able to suppress”. The “suppression of SPFC production by LPS stimulation” value in data set [2] was “selectively suppresses”.

For the compound `CCOC(=O)C1(Oc2ccc(F)cc2)CCC(=O)O1` (racemic) [Conventional Compound, ethyl 2-(4-fluorophenoxy)-5-oxo-2-tetrahydrofurancarboxylate, reference compound], in data set [3], the “selectivity of the suppressive effect on renal lesions” value is “no selective suppression was observed”, the “Rate of Cases where Glomerular Lesion was Suppressed” value is listed as 75% (3/4), the “Rate of Cases where tubulointerstitial Lesion was Suppressed” value is recorded as 75% (3/4) and the “Serum Creatinine level (mg/dl) on the 7th Day from Release of Obstruction” value came to 2.2 ± 0.2 mg/dL. Further, the “Weight of Kidney (g) on the 7th Day from Release of Obstruction” value in data set [3] is recorded as 2.73 ± 0.41 g. Also, in data set [3] (setting [7]), the “Suppressive Effect to Glomerular Lesion” value is reported as “∘” and the “Suppressive Effect to Lesion of Tubulointerstitial Tissue” value (“Suppressive Effect to Lesion” for short) is given as “∘”. Moreover, the IC50 in data set [4] (setting [8]) worked out at 0.1 µM. Further, the IC50 in data set [4] (setting [9]) was 0.1 µM. The IC50 in data set [2] (setting [10]) turned out to be 0.1 µM. In addition, the IC50 in data set [2] (setting [11]) is 0.1 µM.

In the case of `O=C1CCC(Cl)(C(=O)OCc2ccccc2)O1` (centres unmarked) [(6-1), Benzyl 2-chloro-5-oxotetrahydrofuran-2-carboxylate], the toxicity finding entry in data set [5] was “an increase in weights of the liver and the spleen in a light degree”. Moreover, the IC50 in data set [4] (setting [8]) was greater than 1 µM; in data set [4] (setting [9]), greater than 1 µM; in data set [2] (setting [10]), 0.001 µM; in data set [2] (setting [11]) it was 0.001 µM. Moreover, the “functional group (selective suppression of SPFC production by allo-MLC or LPS stimulation)” value in data set [4] is “group II”. Also, in data set [6] (30 mg/kg/day subcutaneously), the “suppression of glomerular lesion” value is reported as “well suppressed”. In addition, the “Rate of Cases where Glomerular Lesion was Suppressed” value in data set [6] (setting [12]) is 67% (4/6). Moreover, the “Rate of Cases where Lesion of Tubulointerstitial Tissue was Suppressed” value in data set [6] (setting [12]) was 17% (1/6). Also, the “Suppressive Effect to Glomerular Lesion” value in data set [6] (Experimental Model of Rat: CPN) is reported as “∘”. For the same compound, the “Suppressive Effect to Lesion” value in data set [6] (Experimental Model of Rat: CPN) was “x”.

Regarding `O=C1OC(Cl)(C(=O)OCc2ccccc2)c2ccccc21` (centres unmarked) [(7-3), Benzyl 1-chloro-3-oxo-1,3-dihydro-isobenzofuran-1-carboxylate], in data set [3], the “selectivity of the suppressive effect on renal lesions” value is listed as “selective suppressive effect”, the “Rate of Cases where Glomerular Lesion was Suppressed” value is 25% (1/4), the “Rate of Cases where tubulointerstitial Lesion was Suppressed” value was 100% (4/4) and the “Serum Creatinine level (mg/dl) on the 7th Day from Release of Obstruction” value was 2.0 ± 0.6 mg/dL. Further, in data set [3], the “Weight of Kidney (g) on the 7th Day from Release of Obstruction” value worked out at 2.72 ± 0.47 g. For the same compound, in data set [3] (setting [13]), the “Suppressive Effect to Glomerular Lesion” value is listed as “x” and the “Suppressive Effect to Lesion” value is “∘”. Besides, the IC50 in data set [4] (setting [8]) was determined as 0.01 µM. In addition, in data set [4] (setting [9]), the IC50 turned out to be 0.01 µM. In addition, the “functional group (selective suppression of SPFC production by allo-MLC or LPS stimulation)” value in data set [4] is recorded as “group I”. Moreover, in data set [2] (setting [10]), the IC50 was greater than 1 µM. Besides, in data set [2] (setting [11]), the IC50 stood at 0.01 µM.

As for `O=C1CCC(F)(C(=O)OCc2ccccc2)O1` (centres unmarked) [(6-2), Benzyl 2-fluoro-5-oxotetrahydrofuran-2-carboxylate], in data set [3] (setting [13]), the “Suppressive Effect to Glomerular Lesion” value was “∘” and the “Suppressive Effect to Lesion” value is “x”. Moreover, in data set [4], the “functional group (selective suppression of SPFC production by allo-MLC or LPS stimulation)” value is reported as “group II”. In addition, the IC50 in data set [2] (setting [10]) is 0.001 µM. Besides, in data set [2] (setting [11]), the IC50 turned out to be 0.001 µM.
